# Test results reported in patent publication US11388924B2 (priority 2018, dated 2022).
# Like-named read-outs stand apart in the source and are kept apart here.
# Key:
# [1] = 20° C.; cited from earlier work
# [2] = pig's nasal mucosa; cited from earlier work
# [3] = after absorption through the lung; cited from earlier work
# [4] = pH 7.4; cited from earlier work
# [5] = From the text: The neutralization reaction in vegetable glycerin is less favorable in view of the reduced solubility of CO2 (Nunes et al., 2013—Solubility of CO2 in glycerol at high pressures. J. of Fluid Phase Equilibria; 358: 105-107).
# In an embodiment of the present disclosure, the experimental setup described by Bihong, et al., 2015 (Mechanisms of CO2 Capture into Monoethanolamine Solution with Different CO2 Loading during the Absorption/Desorption Processes. J. of Environmental Science technology; 49 (17): 10728-10735) was implemented. […] In a further embodiment of the present disclosure, the neutralization with CO2 was performed at pressures ranging from about 0.1 MPa to about 2.7 MPa.
# The organic acid is typically selected based on volatility under vaping conditions, tastelessness, low toxicity or nontoxicity to human health, ease of manipulation, ability to form liquid salts and […] an unpleasant sensation such as shortness of breath. In a further embodiment of the present disclosure, the organic acid is glycolic acid.
# [6] = 25° C., cited from earlier work
# Text for subjects: This sensation ranges from a smooth satisfying catch as the vapor travels down the throat to an intolerable harshness.
smiles,measurement,setting,value
O=C(O)CC(O)C(=O)O (stereo not shown) [malic acid],sensation produced by the acid used in the formulation,subjects; acid in nicotine formulations,unpleasant feeling
CN1CCCC1c1cccnc1 (stereo not shown) [nicotine],pKa,[1],6.15
same,permeation of the protonated form versus the unionized form,[2],higher than that for the unionized form
same,burning sensation in the throat,subjects; in vivo,diminishes or disappears
same,feeling of shortness of breath,subjects; in vivo,waned or disappeared
same,estimated time to reach the brain,[3],10 to 20 s
same,nicotine ionized,[4],~69%
same,nicotine unionized,[4],31%
same,pH reached by neutralization with CO2,"[5]; about 25° C., about 0.41 MPa",≤ 7.5
same,final pH after neutralization with CO2,[5]; in water,6.8
same,initial pH,"[5]; pure nicotine in propylene glycol, before neutralization",above 9.5
O=C=O [CO2],number moles of CO2 dissolved,"[6]; acetone, 0.52 MPa",0.0876
same,number moles of CO2 dissolved,"[6]; ethanol, 0.41 MPa",0.0349
same,number moles of CO2 dissolved,"[6]; propylene glycol, 0.38 MPa",0.0100
CC(O)C(=O)O (stereo not shown) [lactic acid],sensation produced by the acid used in the formulation,subjects; in vivo,unpleasant feeling
O=C(O)CC(O)(CC(=O)O)C(=O)O [citric acid],sensation produced by the acid used in the formulation,subjects; in vivo,unpleasant feeling
